# Laboratory results reported in the supplement of paper PMC11061612.
# Key:
# [1] = system: UACC-62 (Melanoma); assay: combination Emax (second highest fraction inhibited in the dose matrix, 72 h); higher = more inhibition; extreme values may be limits of the assay
# Method in brief: (§1)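 Cell lines in DMEM/F12 or RPMI with 10% FBS were plated in 1536-well plates, held 24 hours at 37°C, 5% CO2, then given two-drug dose matrices for 72 hours (DMSO typically 0.2%). Viability was read by CellTiter-Glo 2.0 luminescence and scaled as inhibition from 0 (vehicle wells) to 1 (blank wells). Combination Emax is the second-highest inhibition in the matrix; Bliss excess is observed combination effect minus expected EA + EB − EA·EB, EA and EB being single-agent effects.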
# [2] = system: SW13 (Other Solid Carcinomas); assay: Bliss excess, mean over the matrix (fraction); higher = more synergy
# Method in brief: as §1
# [3] = system: EW-24 (Ewing's Sarcoma); assay: as above
# Method in brief: as §1
# [4] = system: NCI-H727 (Other Solid Carcinomas); assay: as above
# Method in brief: as §1
# [5] = system: RF-48 (B-Cell Non-Hodgkin's Lymphoma); assay: as above
# Method in brief: as §1
# [6] = system: KARPAS-299 (T-Cell Non-Hodgkin's Lymphoma); assay: as above
# Method in brief: as §1
# [7] = system: HOP-62 (Lung Adenocarcinoma); assay: as above
# Method in brief: as §1
# [8] = system: PWR-1E (Non-Cancerous); assay: as above
# Method in brief: as §1
# [9] = system: TK10 (Kidney Carcinoma); assay: as above
# Method in brief: as §1
# [10] = system: BT-549 (Breast Carcinoma); assay: as above
# Method in brief: as §1
# [11] = system: KYSE-450 (Esophageal Squamous Cell Carcinoma); assay: as above
# Method in brief: as §1
# [12] = system: NCI-H358 (Lung Adenocarcinoma); assay: as above
# Method in brief: as §1
# [13] = system: OE19 (Esophageal Adenocarcinoma); assay: as above
# Method in brief: as §1
# [14] = system: EFM-19 (Breast Carcinoma); assay: as above
# Method in brief: as §1
# [15] = system: MIA-PaCa-2 (Pancreatic Carcinoma); assay: as above
# Method in brief: as §1
# [16] = system: Ca9-22 (Head and Neck Carcinoma); assay: as above
# Method in brief: as §1
# [17] = system: SU8686 (Pancreatic Carcinoma); assay: as above
# Method in brief: as §1
# [18] = system: KMOE-2 (Acute Myeloid Leukemia); assay: as above
# Method in brief: as §1
# [19] = system: NB69 (Neuroblastoma); assay: as above
# Method in brief: as §1
# [20] = system: HGC-27 (Gastric Carcinoma); assay: as above
# Method in brief: as §1
# 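For Bliss excess, mean over the matrix in this document: after 72 h of two-drug dosing.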
SMILES,combination Emax [1],Bliss excess [2],Bliss excess [3],Bliss excess [4],Bliss excess [5],Bliss excess [6],Bliss excess [7],Bliss excess [8],Bliss excess [9],Bliss excess [10],Bliss excess [11],Bliss excess [12],Bliss excess [13],Bliss excess [14],Bliss excess [15],Bliss excess [16],Bliss excess [17],Bliss excess [18],Bliss excess [19],Bliss excess [20]
"CN(C)CCCOc1ccc(-c2ccc3ncc4c(c3c2)n(C2CCOCC2)c(=O)n4C)cn1 [AZD0156] + O=C(c1cc(Cc2n[nH]c(=O)c3ccccc23)ccc1F)N1CCN(C(=O)C2CC2)CC1 [Olaparib] (first compound max 3 µM, partner max 3 µM)",0.183,0.0694,-0.0624,-0.0333,0.0064,0,-0.0249,0.286,-0.0279,-0.0436,-0.0054,-0.0175,0.13,0.0014,-0.038,0.132,-0.0011,0.0564,0.0875,0.0997
"CN(C)CCCOc1ccc(-c2ccc3ncc4c(c3c2)n(C2CCOCC2)c(=O)n4C)cn1 [AZD0156] + CCN(CCO)CCCOc1ccc2c(Nc3cc(CC(=O)Nc4cccc(F)c4)[nH]n3)ncnc2c1 [AZD2811] (first compound max 1 µM, 7x7, partner max 1 µM)",0.188,0.0259,0.0199,-0.0825,0.0084,0.0031,-0.046,0.0831,-0.0342,-0.0028,-0.0353,-0.0214,0.0224,-0.0331,0.0369,-0.0056,-0.0375,0.0096,-0.0815,-0.0352
"Cn1cnc2c(F)c(Nc3ccc(Br)cc3Cl)c(C(=O)NOCCO)cc21 [Selumetinib] + C[C@@H]1COCCN1C2=NC(=NC(=C2)C3(CC3)[S@](=N)(=O)C)C4=C5C=CNC5=NC=C4 [AZD6738] (first compound max 10 µM, 7x7, partner max 10 µM)",0.803,0.0113,-0.0785,0.0201,-0.0651,-0.013,-0.0175,-0.0381,-0.0373,-0.0936,0.0046,-0.0816,-0.049,-0.0188,0.0499,-0.0197,-0.0168,0.0544,-0.0029,-0.0513
"C=CCn1c(=O)c2cnc(Nc3ccc(N4CCN(C)CC4)cc3)nc2n1-c1cccc(C(C)(C)O)n1 [AZD1775] + C1CN(CCC1(C(=O)N[C@@H](CCO)C2=CC=C(C=C2)Cl)N)C3=NC=NC4=C3C=CN4 [Capivasertib] (first compound max 3 µM, partner max 3 µM)",0.458,-0.016,-0.0878,-0.0584,-0.0989,-0.0444,-0.0872,-0.0165,-0.124,-0.0628,-0.0843,-0.0375,0.0192,-0.0443,-0.0471,-0.0236,-0.0619,0.0273,-0.0304,0.0785
"CCc1c2c(nc3ccc(O)cc13)-c1cc3c(c(=O)n1C2)COC(=O)[C@]3(O)CC [SN-38] + CN(C)CCCOc1ccc(-c2ccc3ncc4c(c3c2)n(C2CCOCC2)c(=O)n4C)cn1 [AZD0156] (first compound max 0.3 µM, 7x7, partner max 1 µM)",0.891,0.0279,-0.0189,-0.006,-0.0098,0.071,0.0182,0.0948,0.028,-0.0888,0.0937,0.0282,0.159,-0.064,0.0279,0.0332,-0.0327,-0.0089,0.0106,0.077
"CCN(CCO)CCCOc1ccc2c(Nc3cc(CC(=O)Nc4cccc(F)c4)[nH]n3)ncnc2c1 [AZD2811] + C=CCn1c(=O)c2cnc(Nc3ccc(N4CCN(C)CC4)cc3)nc2n1-c1cccc(C(C)(C)O)n1 [AZD1775] (first compound max 1 µM, partner max 1 µM)",0.391,0.0821,0.0045,-0.0909,0.0041,0.0057,-0.0287,0.118,-0.0707,0.017,-0.0206,-0.0312,-0.0152,-0.0269,0.0756,0.027,-0.0166,-0.0181,-0.0383,-0.0176
"CCc1c2c(nc3ccc(O)cc13)-c1cc3c(c(=O)n1C2)COC(=O)[C@]3(O)CC [SN-38] + O=C(c1cc(Cc2n[nH]c(=O)c3ccccc23)ccc1F)N1CCN(C(=O)C2CC2)CC1 [Olaparib] (first compound max 0.3 µM, 7x7, partner max 10 µM)",0.843,0.0364,0.0359,-0.0075,0.0259,0.0404,0.0562,–,0.011,0.0589,0.0808,0.0029,0.0026,0.0496,0.0701,0.0176,–,0.0555,0.0236,-0.0468
"CS(=O)(=O)CCNCc1ccc(-c2ccc3ncnc(Nc4ccc(OCc5cccc(F)c5)c(Cl)c4)c3c2)o1 [Lapatinib] + NC1(c2ccc(-c3nc4ccn5c(=O)[nH]nc5c4cc3-c3ccccc3)cc2)CCC1 [MK-2206] (first compound max 10 µM, 7x7, partner max 10 µM)",0.516,-0.0229,0.0118,0.0172,0.0003,0.0874,–,0.0309,0.0616,-0.0275,-0.022,-0.0733,–,0.0455,0.0112,0.005,–,–,0.0688,-0.0156
"Cc1c2c(nn1C)CSCc1cc(n(C)n1)CSc1cc(c3ccccc3c1)OCCCc1c(C(=O)O)n(C)c3c-2c(Cl)ccc13 [AZD5991] + CN(C)CCCOc1ccc(-c2ccc3ncc4c(c3c2)n(C2CCOCC2)c(=O)n4C)cn1 [AZD0156] (first compound max 1 µM, 7x7, partner max 1 µM)",0.812,-0.0092,0.0103,0.043,-0.0117,0.016,–,0.027,-0.0089,-0.004,0.0134,0.0096,-0.0242,-0.03,-0.0084,-0.0131,-0.0413,-0.0526,-0.136,0.0458
"Cc1c2c(nn1C)CSCc1cc(n(C)n1)CSc1cc(c3ccccc3c1)OCCCc1c(C(=O)O)n(C)c3c-2c(Cl)ccc13 [AZD5991] + C[C@@H](Nc1cc(F)cc(F)c1)c1cc(C(=O)N(C)C)cc2c(=O)cc(N3CCOCC3)oc12 [AZD8186] (first compound max 1 µM, 7x7, partner max 3 µM)",0.934,0.0293,-0.0426,0.0239,-0.0401,0.0185,-0.0421,-0.0134,-0.0736,0.0621,–,-0.0519,0.043,-0.0123,-0.0095,-0.012,-0.0002,-0.0378,-0.0207,0.0246
"Cc1c2c(nn1C)CSCc1cc(n(C)n1)CSc1cc(c3ccccc3c1)OCCCc1c(C(=O)O)n(C)c3c-2c(Cl)ccc13 [AZD5991] + CCN(CCO)CCCOc1ccc2c(Nc3cc(CC(=O)Nc4cccc(F)c4)[nH]n3)ncnc2c1 [AZD2811] (first compound max 1 µM, 7x7, partner max 1 µM)",0.887,0.0895,-0.0172,0.0473,0.0211,0.0426,–,0.151,0.0117,0.0908,0.0499,-0.0392,-0.0098,0.122,0.0738,0.0626,-0.0135,0.0471,0.0311,0.0635
"Cc1c2c(nn1C)CSCc1cc(n(C)n1)CSc1cc(c3ccccc3c1)OCCCc1c(C(=O)O)n(C)c3c-2c(Cl)ccc13 [AZD5991] + Cn1cnc2c(F)c(Nc3ccc(Br)cc3Cl)c(C(=O)NOCCO)cc21 [Selumetinib] (first compound max 1 µM, 7x7, partner max 3 µM)",0.998,-0.0006,-0.017,0.0213,-0.0095,0.0496,-0.0626,-0.0294,0.0135,0.0056,0.0036,0.0531,0.0051,–,0.0197,0.0185,0.0084,-0.0227,0.0377,0.033
"Cc1c2c(nn1C)CSCc1cc(n(C)n1)CSc1cc(c3ccccc3c1)OCCCc1c(C(=O)O)n(C)c3c-2c(Cl)ccc13 [AZD5991] + C[C@@H]1COCCN1C2=NC(=NC(=C2)C3(CC3)[S@](=N)(=O)C)C4=C5C=CNC5=NC=C4 [AZD6738] (first compound max 1 µM, 7x7, partner max 10 µM)",0.939,0.0363,-0.0078,0.025,-0.0062,0.0002,0.0213,0.005,-0.0599,0.0869,0.0407,-0.0334,–,0.0543,0.0652,0.0573,-0.008,0.0168,0.0301,0.0562
"C[C@@H](Oc1cc(-c2cnn(C3CCNCC3)c2)cnc1N)c1c(Cl)ccc(F)c1Cl [Crizotinib] + CC1=C(C(=CC=C1)Cl)NC(=O)C2=CN=C(S2)NC3=CC(=NC(=N3)C)N4CCN(CC4)CCO [Dasatinib] (first compound max 10 µM, 7x7, partner max 2 µM)",0.345,-0.0173,-0.0154,-0.0009,-0.119,-0.0263,–,–,0.0333,0.0139,0.0276,-0.0813,–,0.0874,0.0119,0.0635,–,–,0.0051,–
"O=C(c1cc(Cc2n[nH]c(=O)c3ccccc23)ccc1F)N1CCN(C(=O)C2CC2)CC1 [Olaparib] + Cc1c2c(nn1C)CSCc1cc(n(C)n1)CSc1cc(c3ccccc3c1)OCCCc1c(C(=O)O)n(C)c3c-2c(Cl)ccc13 [AZD5991] (first compound max 10 µM, 7x7, partner max 1 µM)",0.568,0.0104,-0.0215,-0.0269,-0.108,0.0202,–,–,-0.0699,-0.0223,-0.0409,-0.0513,–,0.0102,-0.0205,0.0247,–,–,-0.0042,–
